≈ marks a conversion by molar mass, not a printed value.
Experiments:
[1] = target: T1, glucocerebrosidase (Gcase) (Homo sapiens, UniProt P04062); test: Glucocerebrosidase (Gcase) activation assay, 4-methylumbelliferyl-beta-D-glucopyranoside substrate, fluorescence; type: biochemical; details: 10 nM GCase, 100 nM saposin C, pH 4.7; for activation at 0.1 µM: 0.1 μM test compound, read-out: Percent Gcase Activation, 0.1 μM Test Compound; for activation at 1 µM: 1 μM test compound, read-out: Percent Gcase Activation, 1 μM Test Compound
T1 sequence (P04062 40-536): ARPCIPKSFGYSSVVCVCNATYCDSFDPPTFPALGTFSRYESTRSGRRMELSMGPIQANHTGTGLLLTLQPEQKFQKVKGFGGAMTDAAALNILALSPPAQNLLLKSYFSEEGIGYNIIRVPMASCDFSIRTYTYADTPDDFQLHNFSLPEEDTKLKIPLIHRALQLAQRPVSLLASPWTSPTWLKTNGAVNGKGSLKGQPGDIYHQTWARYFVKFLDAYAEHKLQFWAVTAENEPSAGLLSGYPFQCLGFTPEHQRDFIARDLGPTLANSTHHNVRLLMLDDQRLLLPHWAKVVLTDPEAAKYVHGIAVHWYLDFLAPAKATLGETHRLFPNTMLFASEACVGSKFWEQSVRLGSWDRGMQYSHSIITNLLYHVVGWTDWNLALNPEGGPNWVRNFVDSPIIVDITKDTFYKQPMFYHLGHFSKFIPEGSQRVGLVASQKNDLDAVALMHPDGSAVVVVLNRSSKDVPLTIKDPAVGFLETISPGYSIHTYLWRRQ
Experimental: The ability of exemplary compounds to activate glucocerebrosidase (Gcase) was measured.
A 484 μL aliquot of a 1.0 mg/mL solution of phosphatidylserine (PS) (Sigma P7769) in chloroform was evaporated under a stream of nitrogen for 1 hour. The lipid film was dissolved over 4 minutes of vigorous vortexing in 40 mL of 176 mM K2HPO4/50 mM citric acid (pH 4.7) containing 7.5 μL of triton X-100, resulting in a mixed micellar preparation with a composition of 0.32 mM triton and 0.37 mol % PS. 4-Methylumbelliferyl-beta-D-glucopyranoside (ACROS-337025000) was dissolved in the micellar solution to a final concentration of 2 mM for use as the reaction substrate.
Test compounds were diluted to the desired concentrations with dimethylsulfoxide (DMSO) from 10 mM stocks, and 0.41 μL of the DMSO compound mixture was added to 100 μL of micellar solution containing 10 nM GCase and 100 nM saposin C (Enzo ALX-201-262-C050). Pre-incubation was allowed to occur for 30 minutes at room temperature, after which the reaction was initiated by combining 25 μL of substrate solution with 25 μL of compound/GCase/saposin mixture. The reaction proceeded for 15 minutes at room temperature and was stopped by adding 150 μL of 1M glycine, pH 12.5. The endpoint of the reaction was monitored by measuring fluorescence intensity (excitation: 365 nm; emission: 440 nm) on a SpectraMax i3 instrument (Molecular Devices). […]

[2] = Compound solubility in water; type: physicochemical

For Cc1nc(C)c2cccc(C(=O)NC3CCCc4ccccc43)c2n1 (stereo not drawn) [2,4-Dimethyl-N-(1,2,3,4-tetrahydronaphthalen-1-yl)quinazoline-8-carboxamide], the activation at 0.1 µM [1] was < 5%, the activation at 1 µM [1] was 5 to 20% and the solubility [2] was 5 µg/mL (≈ 15.1 µM).
With Cc1nc(C)n2ccc(C(=O)NC3(C)CCCc4ccccc43)c2n1 (stereo not drawn) [2,4-Dimethyl-N-(1-methyl-1,2,3,4-tetrahydronaphthalen-1-yl)pyrrolo[1,2-a][1,3,5]triazine-8-carboxamide] the activation at 0.1 µM [1] was 5 to 20%, the activation at 1 µM [1] was > 20% and the solubility [2] was 5.1 µg/mL (≈ 15.3 µM).
In the case of CCC(NC(=O)c1ccn2c(C)nc(C)nc12)c1ccccc1 (stereo not drawn) [2,4-Dimethyl-N-(1-phenylpropyl)pyrrolo[1,2-a][1,3,5]triazine-8-carboxamide], the activation at 0.1 µM [1] is reported as 5 to 20%, the activation at 1 µM [1] is reported as > 20% and the solubility [2] is reported as 17.4 µg/mL (≈ 56.4 µM).
For CCC(NC(=O)c1cccc2c(C)nc(C)nc12)c1ccccc1 (stereo not drawn) [2,4-Dimethyl-N-(1-phenylpropyl)quinazoline-8-carboxamide], the activation at 0.1 µM [1] was < 5%, the activation at 1 µM [1] was 5 to 20% and the solubility [2] was 8.7 µg/mL (≈ 27.2 µM).
In the case of CCCCCO[C@H]1CC[C@H](NC(=O)c2cccc3c(C)nc(C)nc23)CC1 [2,4-Dimethyl-N-((1R,4R)-4-(pentyloxy)cyclohexyl)quinazoline-8-carboxamide], the activation at 0.1 µM [1] is reported as < 5%, the activation at 1 µM [1] is reported as 5 to 20% and the solubility [2] is reported as 7.6 µg/mL (≈ 20.6 µM).
In the case of CCCCCO[C@H]1CC[C@H](NC(=O)c2ccn3c(C)nc(C)nc23)CC1 [2,4-Dimethyl-N-((1S,4S)-4-(pentyloxy)cyclohexyl) pyrrolo[1,2-a][1,3,5]triazine-8-carboxamide], the activation at 0.1 µM [1] is reported as 5 to 20%, the activation at 1 µM [1] is reported as > 20% and the solubility [2] is reported as 12.5 µg/mL (≈ 35 µM).
In the case of Cc1nc(-c2cccc(C(N)=O)c2)nc2c(C(=O)NC(C3CC3)C(F)(F)F)ccn12 (stereo not drawn) [2-(3-Carbamoylphenyl)-N-(1-cyclopropyl-2,2,2-trifluoroethyl)-4-methylpyrrolo[1,2-a][1,3,5]triazine-8-carboxamide], the activation at 0.1 µM [1] is reported as > 20%, the activation at 1 µM [1] is reported as > 20% and the solubility [2] is reported as 1.9 µg/mL (≈ 4.55 µM).
In the case of Cc1nc(-c2cccc(C#N)c2)nc2c(C(=O)NC(C3CC3)C(F)(F)F)ccn12 (stereo not drawn) [2-(3-Cyanophenyl)-N-(1-cyclopropyl-2,2,2-trifluoroethyl)-4-methylpyrrolo[1,2-a][1,3,5]triazine-8-carboxamide], the activation at 0.1 µM [1] is reported as > 20%, the activation at 1 µM [1] is reported as > 20% and the solubility [2] is reported as 0.6 µg/mL (≈ 1.5 µM).
In the case of COc1cc(-c2nc(C)n3ccc(C(=O)NC(C)C(F)(F)F)c3n2)ccc1F (stereo not drawn) [2-(4-Fluoro-3-methoxyphenyl)-4-methyl-N-(1,1,1-trifluoropropan-2-yl)pyrrolo[1,2-a][1,3,5]triazine-8-carboxamide], the activation at 0.1 µM [1] is reported as > 20%, the activation at 1 µM [1] is reported as > 20% and the solubility [2] is reported as 1 µg/mL (≈ 2.52 µM).
In the case of Cc1nc(C)n2ccc(C(=O)NC(C3CC3)C(F)(F)F)c2n1 (stereo not drawn) [N-(1-Cyclopropyl-2,2,2-trifluoroethyl)-2,4-dimethylpyrrolo[1,2-a][1,3,5]triazine-8-carboxamide], the activation at 0.1 µM [1] is reported as 5 to 20%, the activation at 1 µM [1] is reported as > 20% and the solubility [2] is reported as 28.2 µg/mL (≈ 90.3 µM).
For Cc1nc(-c2cccc(F)c2)nc2c(C(=O)NC(C3CC3)C(F)(F)F)ccn12 (stereo not drawn) [N-(1-Cyclopropyl-2,2,2-trifluoroethyl)-2-(3-fluorophenyl)-4-methylpyrrolo[1,2-a][1,3,5]triazine-8-carboxamide], the activation at 0.1 µM [1] was > 20%, the activation at 1 µM [1] was > 20% and the solubility [2] was 0.2 µg/mL (≈ 0.51 µM).
For Cc1nc(-c2ccc(F)cc2)nc2c(C(=O)NC(C3CC3)C(F)(F)F)ccn12 (stereo not drawn) [N-(1-Cyclopropyl-2,2,2-trifluoroethyl)-2-(4-fluorophenyl)-4-methylpyrrolo[1,2-a][1,3,5]triazine-8-carboxamide], the activation at 0.1 µM [1] was > 20%, the activation at 1 µM [1] was > 20% and the solubility [2] was 0.1 µg/mL (≈ 0.255 µM).
For Cc1nc(C)n2ccc(C(=O)Nc3ccc4c(c3)CCC4)c2n1 [N-(2,3-Dihydro-1H-inden-5-yl)-2,4-dimethylpyrrolo[1,2-a][1,3,5]triazine-8-carboxamide], the activation at 0.1 µM [1] was < 5%, the activation at 1 µM [1] was > 20% and the solubility [2] was 1.2 µg/mL (≈ 3.92 µM).
With Cc1nc(C)c2cccc(C(=O)Nc3ccc4c(c3)CCC4)c2n1 [N-(2,3-Dihydro-1H-inden-5-yl)-2,4-dimethylquinazoline-8-carboxamide] the activation at 0.1 µM [1] was < 5%, the activation at 1 µM [1] was 5 to 20% and the solubility [2] was 0.5 µg/mL (≈ 1.58 µM).
With Cc1nc(C)n2ccc(C(=O)NC(C)(C)C3CC3)c2n1 [N-(2-Cyclopropylpropan-2-yl)-2,4-dimethylpyrrolo[2-a][1,3,5]triazine-8-carboxamide] the activation at 0.1 µM [1] was < 5%, the activation at 1 µM [1] was 5 to 20% and the solubility [2] was 38.4 µg/mL (≈ 141 µM).
In the case of Cc1nc(-c2ccc(F)cc2)nc2c(C(=O)NC(C)(C)C3CC3)ccn12 [N-(2-Cyclopropylpropan-2-yl)-2-(4-fluorophenyl)-4-methylpyrrolo[1,2-a][1,3,5]triazine-8-carboxamide], the activation at 0.1 µM [1] is reported as < 5%, the activation at 1 µM [1] is reported as > 20% and the solubility [2] is reported as 0.5 µg/mL (≈ 1.42 µM).
With C#Cc1ccc(NC(=O)c2ccn3c(C)nc(C)nc23)cc1 [N-(4-Ethynylphenyl)-2,4-dimethylpyrrolo[1,2-a][1,3,5]triazine-8-carboxamide] the activation at 0.1 µM [1] was < 5%, the activation at 1 µM [1] was > 20% and the solubility [2] was 1.8 µg/mL (≈ 6.2 µM).
In the case of C#Cc1ccc(NC(=O)c2cccc3c(C)nc(C)nc23)cc1 [N-(4-Ethynylphenyl)-2,4-dimethylquinazoline-8-carboxamide], the activation at 0.1 µM [1] is reported as < 5%, the activation at 1 µM [1] is reported as < 5% and the solubility [2] is reported as 0.7 µg/mL (≈ 2.32 µM).

Source: patent US20190389865A1, “SUBSTITUTED PYRROLO[1,2-a]TRIAZINES AND RELATED COMPOUNDS AND THEIR USE IN THE TREATMENT OF MEDICAL DISORDERS” (Lysosomal Therapeutics Inc., priority 2016, published 2019)
